# Key:
# MGC-803 = experiment: Antiproliferative activity against human MGC-803 cells assessed as inhibition of cell growth incubated for 72 hrs by SRB assay; format: functional, cell-based; details: MGC-803, 72 h
# ECa-109 cell line [1] = experiment: Antiproliferative activity against human EC109 cells assessed as inhibition of cell growth incubated for 72 hrs by SRB assay; format: functional, cell-based; details: ECa-109, 72 h
# TE-1 = experiment: Antiproliferative activity against human TE-1 cells assessed as inhibition of cell growth incubated for 72 hrs by SRB assay; format: functional, cell-based; details: TE-1, 72 h
# MCF7 = experiment: Antiproliferative activity against human MCF7 cells assessed as inhibition of cell growth incubated for 72 hrs by SRB assay; format: functional, cell-based; details: MCF7, 72 h
# ECa-109 cell line [2] = experiment: Induction of apoptosis in human EC-109 cells assessed as apoptotic rate at 5 mM after 48 hrs by Annexin V-FITC/propidium iodide staining based flow cytometry (reference value: 3.8 %); format: functional
# ECa-109 cell line [3] = experiment: Induction of mitochondrial depolarization in human EC-109 cells assessed as depolarized cell population at 5 mM measured after 24 hrs by JC1 dye based flow cytometry (reference value: 4.2 %); format: functional
# ECa-109 cell line [4] = experiment: Induction of apoptosis in human EC109 cells assessed as increase in intracellular ROS level at 5 mM incubated for 24 hrs by DCFH-DA staining based flow cytometry analysis (reference value: 0.6 %); format: functional
# ECa-109 cell line [5] = experiment: Induction of apoptosis in human EC-109 cells assessed as apoptotic rate at 5 mM after 24 hrs by Annexin V-FITC/propidium iodide staining based flow cytometry (reference value: 5.7 %); format: functional
SMILES,IC50 (MGC-803),IC50 (MCF7),IC50 (ECa-109 cell line [1]),IC50 (TE-1),Activity (ECa-109 cell line [2]),Activity (ECa-109 cell line [3]),Activity (ECa-109 cell line [4]),Activity (ECa-109 cell line [5])
C=C1C(=O)[C@@]23[C@H](O)C[C@@H]4C(C)(C)CCC[C@@]4(COC(C)=O)[C@@H]2[C@@H](O)C[C@H]1[C@H]3OC(=O)c1ccc(Cl)cc1Cl,1150 nM,1170 nM,4250 nM,1240 nM,–,–,–,–
C=C1C(=O)[C@@]23[C@H](O)C[C@@H]4C(C)(C)CCC[C@@]4(COC(C)=O)[C@@H]2[C@@H](O)C[C@H]1[C@H]3OC(=O)c1ccccc1Cl,710 nM,410 nM,410 nM,450 nM,–,–,–,–
C=C1C(=O)[C@]23[C@H](O)[C@H]1CC[C@H]2[C@@]12CO[C@]3(O)[C@@H](O)[C@@H]1C(C)(C)CC[C@@H]2O [ORIDONIN],–,–,22000 nM,–,–,–,–,–
C=C1C(=O)[C@@]23[C@H](O)C[C@@H]4C(C)(C)CCC[C@@]4(COC(C)=O)[C@@H]2[C@@H](O)C[C@H]1[C@H]3OC(=O)c1cccc(Cl)c1Cl,690 nM,310 nM,330 nM,390 nM,–,–,–,–
C=C1C(=O)[C@@]23[C@H](O)C[C@@H]4C(C)(C)CCC[C@@]4(COC(C)=O)[C@@H]2[C@@H](O)C[C@H]1[C@H]3OC(=O)c1ccccc1C,630 nM,390 nM,470 nM,450 nM,–,–,–,–
C=C1C(=O)[C@@]23[C@H](O)C[C@@H]4C(C)(C)CCC[C@@]4(COC(C)=O)[C@@H]2[C@@H](O)C[C@H]1[C@H]3OC(=O)c1ccc(Br)cc1,610 nM,330 nM,380 nM,390 nM,–,–,–,–
C=C1C(=O)[C@@]23[C@H](O)C[C@@H]4C(C)(C)CCC[C@@]4(COC(C)=O)[C@@H]2[C@@H](O)C[C@H]1[C@H]3OC(=O)CCc1ccccc1,1280 nM,600 nM,680 nM,720 nM,–,–,–,–
C=C1C(=O)[C@@]23[C@H](O)C[C@@H]4C(C)(C)CCC[C@@]4(COC(C)=O)[C@@H]2[C@@H](O)C[C@H]1[C@H]3OC(=O)c1ccccc1F,2290 nM,1720 nM,1630 nM,3630 nM,–,–,–,–
C=C1C(=O)[C@@]23[C@H](O)C[C@@H]4C(C)(C)CCC[C@@]4(COC(C)=O)[C@@H]2[C@@H](O)C[C@H]1[C@H]3OC(=O)c1ccc(OC)c(OC)c1,570 nM,140 nM,270 nM,340 nM,–,–,–,–
C=C1C(=O)[C@@]23[C@H](O)C[C@@H]4C(C)(C)CCC[C@@]4(COC(C)=O)[C@@H]2[C@@H](O)C[C@H]1[C@H]3OC(=O)c1cc(Cl)ccc1OC,660 nM,480 nM,560 nM,460 nM,–,–,–,–
C=C1C(=O)[C@@]23[C@H](O)C[C@@H]4C(C)(C)CCC[C@@]4(COC(C)=O)[C@@H]2[C@@H](O)C[C@H]1[C@H]3OC(=O)c1ccc(OC)cc1,460 nM,230 nM,290 nM,250 nM,–,–,–,–
C=C1C(=O)[C@@]23[C@H](O)C[C@@H]4C(C)(C)CCC[C@@]4(COC(C)=O)[C@@H]2[C@@H](O)C[C@H]1[C@H]3OC(=O)c1ccc(CBr)cc1,340 nM,140 nM,170 nM,250 nM,–,–,–,–
CC(=O)N[C@@H](CS)C(=O)O [ACETYLCYSTEINE],–,–,–,–,4.5%,4.8%,0.2%,6.4%
C=C1C(=O)[C@@]23[C@H](O)C[C@@H]4C(C)(C)CCC[C@@]4(COC(C)=O)[C@@H]2[C@@H](O)C[C@H]1[C@H]3OC(=O)CCCBr,250 nM,470 nM,760 nM,470 nM,–,–,–,–
C=C1C(=O)[C@@]23[C@H](O)C[C@@H]4C(C)(C)CCC[C@@]4(COC(C)=O)[C@@H]2[C@@H](O)C[C@H]1[C@H]3OC(=O)c1ccc(C)cc1,480 nM,240 nM,300 nM,300 nM,–,–,–,–
C=C1C(=O)[C@@]23[C@H](O)C[C@@H]4C(C)(C)CCC[C@@]4(COC(C)=O)[C@@H]2[C@@H](O)C[C@H]1[C@H]3OC(=O)c1ccc(Cl)cc1,280 nM,270 nM,330 nM,380 nM,–,–,–,–
C=C1C(=O)[C@@]23[C@H](O)C[C@@H]4C(C)(C)CCC[C@@]4(COC(C)=O)[C@@H]2[C@@H](O)C[C@H]1[C@H]3OC(=O)c1ccccc1Br,520 nM,460 nM,510 nM,370 nM,–,–,–,–
C=C1C(=O)[C@@]23[C@H](O)C[C@@H]4C(C)(C)CCC[C@@]4(COC(C)=O)[C@@H]2[C@@H](O)C[C@H]1[C@H]3O,8700 nM,6790 nM,5240 nM,6820 nM,–,–,–,–

# Now from value to molecule, other results behind:
IC50 (MGC-803),IC50 (MCF7),SMILES,IC50 (ECa-109 cell line [1]),IC50 (TE-1),Activity (ECa-109 cell line [2]),Activity (ECa-109 cell line [3]),Activity (ECa-109 cell line [4]),Activity (ECa-109 cell line [5])
420 nM,380 nM,C=C1C(=O)[C@@]23[C@H](O)C[C@@H]4C(C)(C)CCC[C@@]4(COC(C)=O)[C@@H]2[C@@H](O)C[C@H]1[C@H]3OC(=O)c1cccc(Br)c1,240 nM,160 nM,–,–,–,–
410 nM,360 nM,C=C1C(=O)[C@@]23[C@H](O)C[C@@H]4C(C)(C)CCC[C@@]4(COC(C)=O)[C@@H]2[C@@H](O)C[C@H]1[C@H]3OC(=O)c1cccc(Cl)c1,400 nM,410 nM,–,–,–,–
2350 nM,2230 nM,C=C1C(=O)[C@@]23[C@H](O)C[C@@H]4C(C)(C)CCC[C@@]4(COC(C)=O)[C@@H]2[C@@H](O)C[C@H]1[C@H]3OC(=O)c1cccc(F)c1,1630 nM,1300 nM,–,–,–,–
470 nM,200 nM,C=C1C(=O)[C@@]23[C@H](O)C[C@@H]4C(C)(C)CCC[C@@]4(COC(C)=O)[C@@H]2[C@@H](O)C[C@H]1[C@H]3OC(=O)c1ccccc1,310 nM,330 nM,–,–,–,–
770 nM,350 nM,C=C1C(=O)[C@@]23[C@H](O)C[C@@H]4C(C)(C)CCC[C@@]4(COC(C)=O)[C@@H]2[C@@H](O)C[C@H]1[C@H]3OC(=O)c1ccc(C(F)(F)F)cc1,380 nM,420 nM,–,–,–,–
460 nM,250 nM,C=C1C(=O)[C@@]23[C@H](O)C[C@@H]4C(C)(C)CCC[C@@]4(COC(C)=O)[C@@H]2[C@@H](O)C[C@H]1[C@H]3OC(=O)c1cccc(OC)c1,440 nM,420 nM,–,–,–,–
310 nM,290 nM,C=C1C(=O)[C@@]23[C@H](O)C[C@@H]4C(C)(C)CCC[C@@]4(COC(C)=O)[C@@H]2[C@@H](O)C[C@H]1[C@H]3OC(=O)c1cccc(C)c1,370 nM,320 nM,–,–,–,–
920 nM,1340 nM,C=C1C(=O)[C@@]23[C@H](O)C[C@@H]4C(C)(C)CCC[C@@]4(COC(C)=O)[C@@H]2[C@@H](O)C[C@H]1[C@H]3OC(=O)c1ccc(F)cc1,8480 nM,20100 nM,–,–,–,–
790 nM,400 nM,C=C1C(=O)[C@@]23[C@H](O)C[C@@H]4C(C)(C)CCC[C@@]4(COC(C)=O)[C@@H]2[C@@H](O)C[C@H]1[C@H]3OC(=O)c1ccccc1C(F)(F)F,420 nM,320 nM,–,–,–,–
1150 nM,290 nM,C=C1C(=O)[C@@]23[C@H](O)C[C@@H]4C(C)(C)CCC[C@@]4(COC(C)=O)[C@@H]2[C@@H](O)C[C@H]1[C@H]3OC(=O)c1cccc(C(F)(F)F)c1,330 nM,370 nM,–,–,–,–

# From ChEMBL document CHEMBL4706557, “Synthesis and in vitro and in vivo biological evaluation of novel derivatives of flexicaulin A as antiproliferative agents” (Eur J Med Chem, 2020)
